Results from ChEMBL document CHEMBL1201862, “PubChem BioAssay data set” (2004).
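Following 48 hours of exposure in 96-well plates, responses at five concentrations were used to interpolate endpoints linearly. The concentration for 50% growth inhibition is given as GI50.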 Activity calls are given as the source filed them. Cut-off read from the data, not from the text of the source: active = GI50 up to about 1.1 µM and inactive = higher.

Tests used:
Experiment in all cases: NCI tumour cell line growth inhibition, 48 h
[1] = test system: DMS-114
[2] = test system: DMS-273
[3] = test system: KM-20L2
[4] = test system: LXFL 529
[5] = test system: M19-MEL
[6] = test system: SNB-78
[7] = test system: XF498
[8] = test system: HOP-18
[9] = test system: RXF 631

Row | Compound | GI50 [1] | GI50 [2] | GI50 [3] | GI50 [4] | GI50 [5] | GI50 [6] | GI50 [7] | GI50 [8] | GI50 [9]
1 | CC1(Br)S(=O)(=O)OCCOS1(=O)=O | > 100 µM (inactive) | > 100 µM (inactive) | > 100 µM (inactive) | > 100 µM (inactive) | > 100 µM (inactive) | > 100 µM (inactive) | > 100 µM (inactive) |  | 
2 | COc1ccc2c(c1)C(=O)C1CC(=O)CCC21 (stereo not given) | > 100 µM (inactive) | > 100 µM (inactive) | > 100 µM (inactive) | > 100 µM (inactive) | > 100 µM (inactive) | > 100 µM (inactive) |  | > 100 µM (inactive) | > 100 µM (inactive)
3 | O=C(O)c1c([N+](=O)[O-])cc(C(F)(F)F)cc1[N+](=O)[O-] |  | > 100 µM (inactive) | > 100 µM (inactive) | > 100 µM (inactive) | > 100 µM (inactive) | > 100 µM (inactive) | 35.2 µM (inactive) |  | > 100 µM (inactive)
4 | CCCCOC(=O)CNC(=O)OC/C=C/C#CC#C/C=C/COC(=O)NCC(=O)OCCCC | > 10 µM (inactive) |  | > 10 µM (inactive) | > 10 µM (inactive) | > 10 µM (inactive) | > 10 µM (inactive) | > 10 µM (inactive) | > 10 µM (inactive) | > 10 µM (inactive)
5 | COc1ccc(NC(=O)C(=O)NNC(=O)c2sc(NNC(C)=O)nc2C)c([N+](=O)[O-])c1 | > 100 µM (inactive) | > 100 µM (inactive) | > 100 µM (inactive) | 34.8 µM (inactive) | > 100 µM (inactive) | > 100 µM (inactive) | 71.3 µM (inactive) |  | 
6 | CCNC(=O)COc1ccc(Cl)c(C)c1 | > 100 µM (inactive) | > 100 µM (inactive) | > 100 µM (inactive) | > 100 µM (inactive) | > 100 µM (inactive) | > 100 µM (inactive) |  | > 100 µM (inactive) | 
7 | Cn1ncc2ccc3[nH]c4ccccc4c(=O)c3c21 | 35.8 µM (inactive) | 28.6 µM (inactive) | 33.8 µM (inactive) | 30 µM (inactive) | 23.2 µM (inactive) | 27.7 µM (inactive) |  | 58.5 µM (inactive) | 21.8 µM (inactive)
8 | COc1cc(C(C)c2cc3c(cc2OCCOCCOc2cc4c(cc2C(C)c2cc(OC)c(OC)c(OC)c2)OCO4)OCO3)cc(OC)c1OC (stereo not given) | > 10 µM (inactive) | > 10 µM (inactive) | > 10 µM (inactive) | > 10 µM (inactive) | > 10 µM (inactive) | > 10 µM (inactive) | > 10 µM (inactive) | > 10 µM (inactive) | > 10 µM (inactive)
9 | O=C(/C(=C/c1ccc(Cl)cc1)c1ccccc1)c1ccccc1 | 16.7 µM (inactive) |  |  | 15.9 µM (inactive) |  | 19.9 µM (inactive) | 18.5 µM (inactive) | 26.5 µM (inactive) | 
10 | CC1(c2cccc(N)c2)C2C(=O)NC(=O)C1C(=O)NC2=O (stereo not given) | 27.5 µM (inactive) | 25.5 µM (inactive) | 27.6 µM (inactive) | 32.2 µM (inactive) | 37.2 µM (inactive) | 51.2 µM (inactive) | 21.8 µM (inactive) |  | > 100 µM (inactive)
11 | O=C1OC(=O)C23CSCC12C1C=CC3O1 (stereo not given) | > 100 µM (inactive) | > 100 µM (inactive) | > 100 µM (inactive) | > 100 µM (inactive) | > 100 µM (inactive) |  | > 100 µM (inactive) |  | 
12 | O=C(Cc1ccccc1)N/N=C(/c1nc2ccc([N+](=O)[O-])cc2nc1O)C(O)c1ccccc1Cl (stereo not given) |  |  |  | 69.7 µM (inactive) | > 100 µM (inactive) | > 100 µM (inactive) | > 100 µM (inactive) | > 100 µM (inactive) | 
13 | N#CC1CC2(C1)OCCS2 (stereo not given) |  | > 100 µM (inactive) | > 100 µM (inactive) | > 100 µM (inactive) |  | > 100 µM (inactive) |  |  | 
14 | C/C(CN1C(=O)c2ccccc2C1=O)=N\NS(=O)(=O)c1cccc([N+](=O)[O-])c1 |  | > 100 µM (inactive) | > 100 µM (inactive) | > 100 µM (inactive) | > 100 µM (inactive) | > 100 µM (inactive) | > 100 µM (inactive) | > 100 µM (inactive) | > 100 µM (inactive)
15 | CCC1(C(=O)OC)CCc2c(OC)ccc(OC)c2C1=O (stereo not given) | > 100 µM (inactive) | > 100 µM (inactive) | > 100 µM (inactive) | > 100 µM (inactive) | > 100 µM (inactive) | > 100 µM (inactive) | > 100 µM (inactive) | > 100 µM (inactive) | > 100 µM (inactive)
16 | C/C(CCn1[nH]c(=O)ccc1=O)=N\NC(=O)C(N)=O | > 100 µM (inactive) | > 100 µM (inactive) | > 100 µM (inactive) | > 100 µM (inactive) | > 100 µM (inactive) | > 100 µM (inactive) | > 100 µM (inactive) | > 100 µM (inactive) | 
17 | CCOC(=O)CCC1(C(=O)OCC)CCCCC1=O (stereo not given) | > 100 µM (inactive) | > 100 µM (inactive) | > 100 µM (inactive) | > 100 µM (inactive) | > 100 µM (inactive) | > 100 µM (inactive) | > 100 µM (inactive) | 81.8 µM (inactive) | 
18 | Cc1nc(Nc2ccc([N+](=O)[O-])cc2)sc1C(/C=C/c1ccc(N(C)C)cc1)=N/NC(=O)c1ccccc1 | 29 µM (inactive) |  | 36.3 µM (inactive) | 29.1 µM (inactive) | 61.1 µM (inactive) | 41.6 µM (inactive) | > 100 µM (inactive) | 72.8 µM (inactive) | 32.6 µM (inactive)
19 | COC(=O)C12C3C4C1C1C2C3C41C(=O)O (stereo not given) | > 100 µM (inactive) |  | > 100 µM (inactive) | > 100 µM (inactive) | > 100 µM (inactive) | > 100 µM (inactive) | > 100 µM (inactive) | > 100 µM (inactive) | > 100 µM (inactive)
20 | CCOC(=O)c1cn(Cc2ccccc2)c(=O)n1Cc1ccccc1 | 94 µM (inactive) | > 100 µM (inactive) | > 100 µM (inactive) | > 100 µM (inactive) | > 100 µM (inactive) | > 100 µM (inactive) | 25.8 µM (inactive) | > 100 µM (inactive) | > 100 µM (inactive)
21 | CCC12CC[C@H](C#N)N3CCc4c(n(c5ccccc45)C(=O)C1)C32 (stereo not given in full) |  | 5.14 µM (inactive) | 16.3 µM (inactive) | 16.6 µM (inactive) | 18.7 µM (inactive) | 19.5 µM (inactive) | 20 µM (inactive) | < 0.01 µM (active) | 16.4 µM (inactive)
22 | CC(C)(O)[C@@H]1CC[C@@]2(C)CCCC(O)C2(O)C1 (stereo not given in full) | > 100 µM (inactive) | > 100 µM (inactive) | > 100 µM (inactive) | > 100 µM (inactive) | > 100 µM (inactive) |  | > 100 µM (inactive) | > 100 µM (inactive) | > 100 µM (inactive)
23 | COc1cc(C=O)c(-c2cc3c(cc2C=O)OCO3)c(OC)c1OC | 84.5 µM (inactive) | 85.5 µM (inactive) | 69.5 µM (inactive) | 78 µM (inactive) | 89.1 µM (inactive) |  |  | > 290 µM (inactive) | 115 µM (inactive)
24 | C[C@@H]1C[C@@H]([C@H](O)CC2CC(=O)NC(=O)C2)C(=O)[C@@H](C)C1 [CYCLOHEXIMIDE] | 0.102 µM (active) | 0.0557 µM (active) | 0.0705 µM (active) | 0.0187 µM (active) | 0.0607 µM (active) | 0.0875 µM (active) | 0.0348 µM (active) | 0.249 µM (active) | 0.0248 µM (active)
25 | COc1cc(C)c(CC/C(C)=C/Cc2cc(O)ccc2O)c(C)c1C [PANICEIN A HYDROQUINONE] | > 25 µM (inactive) | > 25 µM (inactive) | > 25 µM (inactive) | > 25 µM (inactive) | > 25 µM (inactive) |  | > 25 µM (inactive) | > 25 µM (inactive) | 
26 | Nc1ccc(S(=O)(=O)Nc2cnc3ccccc3n2)cc1 [SULFAQUINOXALINE] | > 100 µM (inactive) | > 100 µM (inactive) | > 100 µM (inactive) | > 100 µM (inactive) | > 100 µM (inactive) | > 100 µM (inactive) | > 100 µM (inactive) | > 100 µM (inactive) | > 100 µM (inactive)
